Measured values reported in patent publication US6469146B1, “Radiopharmaceutical products suitable for the selective labeling of lymphocytes, and their preparation” (Cis Bio International, priority 2000, dated 2002).

How the values were obtained:
human blood = assay: Labeling of blood cells: yield of cell labeling in whole blood; assay type: cell-based; details: 2 mCi (74 MBq) in 3 mL fresh human blood, 10 minutes, after washings
Experimental: (§1) The radiopharmaceuticals of table I (2 mCi; 74 MBq) are incubated in 3 mL of a fresh sample of human blood for 10 minutes under slow shaking. The blood composition depends upon each sample taken from healthy volunteers (average composition: 1.6±0.3.10^10 Red Globules (RG) and 2.2±0.3.10^7 White Globules (WG) with 1.2±0.3.10^7 Polymorphs (57±9%) and 0.7±0.3.10^7 Lymphocytes (35±4%)]. Non-bound radioactivity is removed by successive washings (2×10 mL of RPMI culture medium 1640) of 10 minutes at 600 g. The yield of cell labeling is determined in a CAPINTEC CRC 120 activimeter. Cell viability is controlled by the Trypan blue exclusion test.
(§2) The results obtained, namely the labeling yield (Yield) and the percentages of activity in the separated fractions are given in tables 3 to 5.

whole blood = assay: Cell separation on whole blood (Polymorphprep gradient), activity in separated fractions; assay type: cell-based, human; design: tested at 2 mCi (74 MBq) in 3 mL blood; details: for Cell separation on whole blood (activity %): Polymorphprep: fraction: Polymorphprep gradient; for Cell separation on whole blood (activity %): Erythrocytes: fraction: erythrocytes; for Cell separation on whole blood (activity %): Leukocytes: fraction: leukocytes; for Cell separation on whole blood (activity %): Medium: fraction: medium
Experimental: as §1, §2
In a first experiment, a separation of the blood constituents is made on a double density Polymorphprep® gradient.
Whole blood from healthy volunteers is labeled with 2 mCi of [^99mTc(ArCS3)2(ArCS2)] following the method described above. The blood constituents are then separated by the Polymorphprep® double density gradient into two separate fractions: lymphocytes and polymorphs/erythrocytes. The whole blood, diluted in 2-3 mL RPMI, is initially delicately placed on the Polymorphprep® gradient and then centrifuged (300 g, 20 min, 37° C.). […] Counting is made on each fraction using a MAXM Y07 00 367 counter in order to confirm cell constitution.

COc1cccc(C(=S)S[S][99Tc]([S]SC(=S)c2cccc(OC)c2)[S]C(=S)c2cccc(OC)c2)c1 [Example 15, [^99mTc(3-MeOPhCS3)2(3-MeOPhCS2)]]
Yield (±3%) of cell labeling (human blood): 99%
Cell separation on whole blood (activity %): Polymorphprep (whole blood): 2%
Cell separation on whole blood (activity %): Erythrocytes (whole blood): 25%
Cell separation on whole blood (activity %): Leukocytes (whole blood): 73%

CCCCc1ccc(C(=S)S[S][99Tc]([S]SC(=S)c2ccc(CCCC)cc2)[S]C(=S)c2ccc(CCCC)cc2)cc1 [Example 11, [^99mTc(4-nBuPhCS3)2(4-nBuPhCS2)]]
Yield (±3%) of cell labeling (human blood): 97%
Cell separation on whole blood (activity %): Polymorphprep (whole blood): 1%
Cell separation on whole blood (activity %): Erythrocytes (whole blood): 53%
Cell separation on whole blood (activity %): Leukocytes (whole blood): 46%

S=C(Cc1ccccc1)S[S][99Tc]([S]SC(=S)Cc1ccccc1)[S]C(=S)Cc1ccccc1 [Example 27, [^99mTc(PhCH2CS3)2(PhCH2CS2)]]
Yield (±3%) of cell labeling (human blood): 88%
Cell separation on whole blood (activity %): Polymorphprep (whole blood): 10%
Cell separation on whole blood (activity %): Erythrocytes (whole blood): 11%
Cell separation on whole blood (activity %): Leukocytes (whole blood): 77%
Cell separation on whole blood (activity %): Medium (whole blood): 1%

Cc1cc(C)c(C(=S)S[S][99Tc]([S]SC(=S)c2cc(C)c(C)cc2C)[S]C(=S)c2cc(C)c(C)cc2C)cc1C [Example 22, [^99mTc(2,4,5-Me3PhCS3)2(2,4,5-Me3PhCS2)]]
Yield (±3%) of cell labeling (human blood): 95%
Cell separation on whole blood (activity %): Polymorphprep (whole blood): 2%
Cell separation on whole blood (activity %): Erythrocytes (whole blood): 20%
Cell separation on whole blood (activity %): Leukocytes (whole blood): 78%

S=C(S[S][99Tc]([S]SC(=S)c1cccc2ccccc12)[S]C(=S)c1cccc2ccccc12)c1cccc2ccccc12 [Example 23, [^99mTc(1-naphCS3)2(1-naphCS2)]]
Yield (±3%) of cell labeling (human blood): 71%
Cell separation on whole blood (activity %): Polymorphprep (whole blood): 5%
Cell separation on whole blood (activity %): Erythrocytes (whole blood): 46%
Cell separation on whole blood (activity %): Leukocytes (whole blood): 43%
Cell separation on whole blood (activity %): Medium (whole blood): 6%

S=C(CCc1ccccc1)S[S][99Tc]([S]SC(=S)CCc1ccccc1)[S]C(=S)CCc1ccccc1 [Example 29, [^99mTc(PhCH2CH2CS3)2(PhCH2CH2CS2)]]
Yield (±3%) of cell labeling (human blood): 43%
Cell separation on whole blood (activity %): Polymorphprep (whole blood): 6%
Cell separation on whole blood (activity %): Erythrocytes (whole blood): 58%
Cell separation on whole blood (activity %): Leukocytes (whole blood): 35%
Cell separation on whole blood (activity %): Medium (whole blood): 1%

[^99mTc(2-Me-naphCS3)2(2-Me-naphCS2)] [Example 26]
Yield (±3%) of cell labeling (human blood): 85%
Cell separation on whole blood (activity %): Polymorphprep (whole blood): 2%
Cell separation on whole blood (activity %): Erythrocytes (whole blood): 15%
Cell separation on whole blood (activity %): Leukocytes (whole blood): 79%
Cell separation on whole blood (activity %): Medium (whole blood): 4%

Cc1cc(C)c(C(=S)S[S][99Tc]([S]SC(=S)c2cc(C)c(C)cc2C)[S]C(=S)c2cc(C)c(C)cc2C)cc1C [Example 21, [^99mTc(2,4,5-Me3PhCS3)2(2,4,5-Me3PhCS2)]]
Yield (±3%) of cell labeling (human blood): 90%
Cell separation on whole blood (activity %): Polymorphprep (whole blood): 2%
Cell separation on whole blood (activity %): Erythrocytes (whole blood): 15%
Cell separation on whole blood (activity %): Leukocytes (whole blood): 82%
Cell separation on whole blood (activity %): Medium (whole blood): 1%

COc1cccc(C(=S)S[S][99Tc]([S]SC(=S)c2cccc(OC)c2)[S]C(=S)c2cccc(OC)c2)c1 [Example 16, [^99mTc(3-MeOPhCS3)2(3-MeOPhCS2)]]
Yield (±3%) of cell labeling (human blood): 98%
Cell separation on whole blood (activity %): Polymorphprep (whole blood): 2%
Cell separation on whole blood (activity %): Erythrocytes (whole blood): 16%
Cell separation on whole blood (activity %): Leukocytes (whole blood): 79%
Cell separation on whole blood (activity %): Medium (whole blood): 3%

S=C(S[S][99Tc]([S]SC(=S)c1cccc2ccccc12)[S]C(=S)c1cccc2ccccc12)c1cccc2ccccc12 [Example 24, [^99mTc(1-naphCS3)2(1-naphCS2)]]
Yield (±3%) of cell labeling (human blood): 74%
Cell separation on whole blood (activity %): Erythrocytes (whole blood): 46%
Cell separation on whole blood (activity %): Leukocytes (whole blood): 53%
Cell separation on whole blood (activity %): Medium (whole blood): 1%

Cc1ccc(C(=S)S[S][99Tc]([S]SC(=S)c2ccc(C)cc2)[S]C(=S)c2ccc(C)cc2)cc1 [Example 5, [^99mTc(4-MePhCS3)2(4-MePhCS2)]]
Yield (±3%) of cell labeling (human blood): 98%
Cell separation on whole blood (activity %): Polymorphprep (whole blood): 3%
Cell separation on whole blood (activity %): Erythrocytes (whole blood): 17%
Cell separation on whole blood (activity %): Leukocytes (whole blood): 80%
Cell separation on whole blood (activity %): Medium (whole blood): 0%

[^99mTc(C6H12CS3)2CS2(C6H12CS2)] [Example 30]
Yield (±3%) of cell labeling (human blood): 97%
Cell separation on whole blood (activity %): Polymorphprep (whole blood): 10%
Cell separation on whole blood (activity %): Erythrocytes (whole blood): 13%
Cell separation on whole blood (activity %): Leukocytes (whole blood): 75%
Cell separation on whole blood (activity %): Medium (whole blood): 2%

CCc1ccccc1C(=S)S[S][99Tc]([S]SC(=S)c1ccccc1CC)[S]C(=S)c1ccccc1CC [Example 9, [^99mTc(2-EtPhCS3)2(2-EtPhCS2)]]
Yield (±3%) of cell labeling (human blood): 72%
Cell separation on whole blood (activity %): Polymorphprep (whole blood): 2%
Cell separation on whole blood (activity %): Erythrocytes (whole blood): 24%
Cell separation on whole blood (activity %): Leukocytes (whole blood): 72%
Cell separation on whole blood (activity %): Medium (whole blood): 2%

Oc1ccc(C(=S)S[S][99Tc]([S]SC(=S)c2ccc(O)cc2)[S]C(=S)c2ccc(O)cc2)cc1 [Example 17, [^99mTc(4-OHPhCS3)2(4-OHPhCS2)]]
Yield (±3%) of cell labeling (human blood): 93%
Cell separation on whole blood (activity %): Polymorphprep (whole blood): 1%
Cell separation on whole blood (activity %): Erythrocytes (whole blood): 12%
Cell separation on whole blood (activity %): Leukocytes (whole blood): 85%
Cell separation on whole blood (activity %): Medium (whole blood): 2%

[^99mTc(C6H12CS3)2CS2(C6H12CS2)] [Example 31]
Yield (±3%) of cell labeling (human blood): 63%
Cell separation on whole blood (activity %): Polymorphprep (whole blood): 3%
Cell separation on whole blood (activity %): Erythrocytes (whole blood): 29%
Cell separation on whole blood (activity %): Leukocytes (whole blood): 68%

CCc1ccc(C(=S)S[S][99Tc]([S]SC(=S)c2ccc(CC)cc2)[S]C(=S)c2ccc(CC)cc2)cc1 [Example 8, [^99mTc(4-EtPhCS3)2(4-EtPhCS2)]]
Yield (±3%) of cell labeling (human blood): 99%
Cell separation on whole blood (activity %): Erythrocytes (whole blood): 14%
Cell separation on whole blood (activity %): Leukocytes (whole blood): 85%
Cell separation on whole blood (activity %): Medium (whole blood): 1%

Cc1ccc(C(=S)S[S][99Tc]([S]SC(=S)c2ccc(C)cc2)[S]C(=S)c2ccc(C)cc2)cc1 [Example 6, [^99mTc(4-MePhCS3)2(4-MePhCS2)]]
Yield (±3%) of cell labeling (human blood): 95%
Cell separation on whole blood (activity %): Polymorphprep (whole blood): 2%
Cell separation on whole blood (activity %): Erythrocytes (whole blood): 20%
Cell separation on whole blood (activity %): Leukocytes (whole blood): 78%

[^99mTc(2-Me-naphCS3)2(2-Me-naphCS2)] [Example 25]
Yield (±3%) of cell labeling (human blood): 96%
Cell separation on whole blood (activity %): Polymorphprep (whole blood): 4%
Cell separation on whole blood (activity %): Erythrocytes (whole blood): 10%
Cell separation on whole blood (activity %): Leukocytes (whole blood): 85%
Cell separation on whole blood (activity %): Medium (whole blood): 1%

S=C(CCc1ccccc1)S[S][99Tc]([S]SC(=S)CCc1ccccc1)[S]C(=S)CCc1ccccc1 [Example 28, [^99mTc(PhCH2CH2CS3)2(PhCH2CH2CS2)]]
Yield (±3%) of cell labeling (human blood): 91%
Cell separation on whole blood (activity %): Polymorphprep (whole blood): 2%
Cell separation on whole blood (activity %): Erythrocytes (whole blood): 16%
Cell separation on whole blood (activity %): Leukocytes (whole blood): 80%
Cell separation on whole blood (activity %): Medium (whole blood): 2%

CCOc1ccc(C(=S)S[S][99Tc]([S]SC(=S)c2ccc(OCC)cc2)[S]C(=S)c2ccc(OCC)cc2)cc1 [Example 14, [^99mTc(4-EtOPhCS3)2(4-EtOPhCS2)]]
Yield (±3%) of cell labeling (human blood): 97%
Cell separation on whole blood (activity %): Polymorphprep (whole blood): 3%
Cell separation on whole blood (activity %): Erythrocytes (whole blood): 22%
Cell separation on whole blood (activity %): Leukocytes (whole blood): 75%
